This is an account of results in DBAASP.

Some test systems named below: Escherichia coli JW0013; Klebsiella pneumoniae; Shigella dysenteriae; Micrococcus luteus; Salmonella typhimurium; Bacillus subtilis; Proteus mirabilis; Escherichia coli; Staphylococcus aureus; Pseudomonas aeruginosa; Bacillus cereus.
Holding throughout (assay): ≥ marks a high value that may be exact or a test limit, other limits are often not marked, values filed in µg/mL are converted to µM
Assay [1] has as its system Pseudomonas aeruginosa ATCC 27853.
Assay [2] has as its system Bacillus subtilis ATCC 6051.
The test system of assay [3] is Staphylococcus aureus ATCC 25923.
Assay [4] concerns Escherichia coli ATCC 25922.
In assay [5] the test system is Staphylococcus epidermidis.
In assay [6] the test system is Escherichia coli DH5alpha.
In assay [7] the test system is Salmonella enterica subsp. enterica serovar Typhimurium ATCC 14028.
Assay [8] relates to Klebsiella pneumoniae ATCC 10031.
The subject of assay [9] is Candida albicans ATCC 2002.
Assay [10] concerns Staphylococcus aureus ATCC 2592.

The structures appear in SMILES notation. Values after ≈ are worked out from the molar mass of the structure shown.

In the assay with Escherichia coli JW0013, `CC[C@H](C)[C@H](NC(=O)[C@H](CCCN=C(N)N)NC(=O)[C@H](CCCN=C(N)N)NC(=O)[C@@H]1CCCN1C(=O)[C@@H]1CCCN1C(=O)[C@H](CCCN=C(N)N)NC(=O)[C@H](CCCCN)NC(=O)[C@H](CCCN=C(N)N)NC(=O)[C@@H]1CCCN1C(=O)[C@H](CCCCN)NC(=O)[C@H](Cc1ccc(O)cc1)NC(=O)[C@@H]1CCCN1C(=O)[C@H](CCCCN)NC(=O)[C@H](CCCCN)NC(=O)[C@H](CC(=O)O)NC(=O)[C@@H](N)C(C)C)C(=O)N[C@@H](Cc1ccc(O)cc1)C(=O)N[C@@H](CC(N)=O)C(=O)N[C@@H](CCCN=C(N)N)C(N)=O` [VDKKPYKPRKRPPRRIYNR] returned an MIC of 0.973 µM (≈ 2.4 µg/mL).
`CC[C@H](C)[C@H](NC(=O)[C@H](CCCN=C(N)N)NC(=O)[C@H](CCCN=C(N)N)NC(=O)[C@@H]1CCCN1C(=O)[C@@H]1CCCN1C(=O)[C@H](CCCN=C(N)N)NC(=O)[C@@H]1CCCN1C(=O)[C@H](CCCN=C(N)N)NC(=O)[C@@H]1CCCN1C(=O)[C@H](CC(C)C)NC(=O)[C@H](Cc1c[nH]c2ccccc12)NC(=O)[C@@H]1CCCN1C(=O)[C@@H]1CCCN1C(=O)[C@H](CCCCN)NC(=O)[C@H](CC(=O)O)NC(=O)[C@@H](N)C(C)C)C(=O)N[C@@H](Cc1ccc(O)cc1)C(=O)N[C@@H](CC(N)=O)C(=O)N[C@@H](CCCN=C(N)N)C(N)=O` [VDKPPWLPRPRPPRRIYNR] came in with an MIC in the assay with Escherichia coli JW0013 of 1.99 µM (≈ 4.8 µg/mL).
For `CC[C@H](C)[C@H](NC(=O)[C@H](CC(N)=O)NC(=O)[C@H](Cc1ccccc1)NC(=O)[C@H](CC(C)C)NC(=O)CN)C(=O)N[C@H](C(=O)N[C@@H](CCCCN)C(=O)N[C@@H](CCCCN)C(=O)N[C@H](C(=O)N[C@H](C(=O)NCC(=O)N[C@@H](CCCCN)C(=O)N[C@@H](CC(C)C)C(=O)N[C@@H](CCCN=C(N)N)C(=O)O)[C@@H](C)CC)[C@@H](C)O)[C@@H](C)CC` [GLFNIIKKTIGKLR], the MIC is 20 µM (≈ 32 µg/mL) in assay [1], no less than 40 µM in assay [2], 160 µM (≈ 256 µg/mL) in [3] and 40 µM (≈ 64 µg/mL) in [4].
Turning to `CC(C)C[C@H](NC(=O)[C@H](C)NC(=O)[C@H](Cc1c[nH]c2ccccc12)NC(=O)[C@H](CC(C)C)NC(=O)[C@@H](N)Cc1ccccc1)C(=O)N[C@@H](Cc1ccccc1)C(=O)N[C@@H](CCCCN)C(=O)N[C@H](C(=O)N[C@@H](C)C(=O)N[C@@H](CO)C(=O)N[C@@H](CCCCN)C(=O)O)C(C)C` [FLWALFKVASK], the MIC is 76.4 µM (≈ 100 µg/mL) against Klebsiella pneumoniae; no less than 153 µM in the assay on Shigella dysenteriae; no less than 38.2 µM against Micrococcus luteus; no less than 153 µM against Salmonella typhimurium; 9.54 µM (≈ 12.5 µg/mL) against Bacillus subtilis; no less than 153 µM with Proteus mirabilis. Further, the MIC is 76.4 µM (≈ 100 µg/mL) against Escherichia coli, 19.1 µM (≈ 25 µg/mL) in assay [5], 9.54 µM (≈ 12.5 µg/mL) against Staphylococcus aureus and greater than 153 µM in the assay on Pseudomonas aeruginosa.
Take `CC[C@H](C)[C@H](NC(=O)[C@H](CCCN=C(N)N)NC(=O)[C@H](CCCN=C(N)N)NC(=O)[C@@H]1CCCN1C(=O)[C@@H]1CCCN1C(=O)[C@H](CCCN=C(N)N)NC(=O)[C@@H]1CCCN1C(=O)[C@H](CCCN=C(N)N)NC(=O)[C@@H]1CCCN1C(=O)[C@H](CCCN=C(N)N)NC(=O)[C@H](CCCN=C(N)N)NC(=O)[C@@H]1CCCN1C(=O)[C@H](CCCCN)NC(=O)[C@H](CCCCN)NC(=O)[C@H](CC(=O)O)NC(=O)[C@@H](N)C(C)C)C(=O)N[C@@H](Cc1ccc(O)cc1)C(=O)N[C@@H](CC(N)=O)C(=O)N[C@@H](CCCN=C(N)N)C(N)=O` [VDKKPRRPRPRPPRRIYNR]: in the assay on Escherichia coli JW0013, the MIC is 1.34 µM (≈ 3.3 µg/mL).
Consider `CC[C@H](C)[C@H](NC(=O)[C@H](CCCN=C(N)N)NC(=O)[C@H](CCCN=C(N)N)NC(=O)[C@@H]1CCCN1C(=O)[C@@H]1CCCN1C(=O)[C@H](CCCN=C(N)N)NC(=O)[C@@H]1CCCN1C(=O)[C@H](CCCN=C(N)N)NC(=O)[C@@H]1CCCN1C(=O)[C@H](CCCCN)NC(=O)[C@H](CCCN=C(N)N)NC(=O)[C@@H]1CCCN1C(=O)[C@H](CCCCN)NC(=O)[C@H](CCCCN)NC(=O)[C@H](CC(=O)O)NC(=O)[C@@H](N)C(C)C)C(=O)N[C@@H](Cc1ccc(O)cc1)C(=O)N[C@@H](CC(N)=O)C(=O)N[C@@H](CCCN=C(N)N)C(N)=O` [VDKKPRKPRPRPPRRIYNR], for which, in the assay with Escherichia coli JW0013, the MIC stood at 1.36 µM (≈ 3.3 µg/mL).
For the molecule `CC(C)C[C@H](NC(=O)CNC(=O)[C@H](C)NC(=O)[C@H](CC(C)C)NC(=O)[C@H](CC(C)C)NC(=O)[C@H](CCCCN)NC(=O)[C@H](CC(C)C)NC(=O)[C@@H](N)Cc1ccccc1)C(=O)N[C@@H](CC(C)C)C(=O)N[C@@H](CCCCN)C(=O)N[C@@H](CC(N)=O)C(=O)N[C@@H](Cc1ccccc1)C(=O)N[C@@H](C)C(=O)O` [FLKLLAGLLKNFA], the MIC is no less than 69.1 µM in assay [6], greater than 69.1 µM in [7] and no less than 34.5 µM in assay [8].
For `CSCC[C@H](NC(=O)[C@H](CO)NC(=O)[C@H](Cc1ccc(O)cc1)NC(=O)[C@H](C)NC(=O)[C@@H](N)CCCCN)C(=O)N1CCC[C@H]1C(=O)N[C@@H](CCCN=C(N)N)C(=O)N[C@H]1CSSC[C@@H](C(=O)N[C@@H](Cc2c[nH]c3ccccc23)C(=O)N[C@@H](CC(C)C)C(N)=O)NC(=O)[C@H](CC(C)C)NC(=O)[C@H](C(C)C)NC(=O)[C@H](C)NC(=O)[C@H](CCCN=C(N)N)NC(=O)[C@H](Cc2ccccc2)NC(=O)[C@H](CC(C)C)NC(=O)[C@H](Cc2ccc(O)cc2)NC(=O)[C@H](CCCCN)NC1=O` [KAYSMPRCKYLFRAVLCWL], the MIC was no less than 42.6 µM in [9]; 5.32 µM (≈ 12.5 µg/mL) in the assay with Shigella dysenteriae; 5.32 µM (≈ 12.5 µg/mL) in [10]; 21.3 µM (≈ 49.9 µg/mL) against Bacillus cereus; 10.6 µM (≈ 25 µg/mL) in the assay on Pseudomonas aeruginosa; 10.6 µM (≈ 25 µg/mL) in assay [4].
Regarding `CC[C@H](C)[C@H](NC(=O)[C@H](CCCN=C(N)N)NC(=O)[C@H](CCCN=C(N)N)NC(=O)[C@@H]1CCCN1C(=O)[C@@H]1CCCN1C(=O)[C@H](CCCN=C(N)N)NC(=O)[C@@H]1CCCN1C(=O)[C@H](CCCN=C(N)N)NC(=O)[C@@H]1CCCN1C(=O)[C@H](CC(C)C)NC(=O)[C@H](Cc1ccc(O)cc1)NC(=O)[C@H](Cc1cnc[nH]1)NC(=O)[C@H](CCCCN)NC(=O)[C@H](CCCCN)NC(=O)[C@H](CC(=O)O)NC(=O)[C@@H](N)C(C)C)C(=O)N[C@@H](Cc1ccc(O)cc1)C(=O)N[C@@H](CC(N)=O)C(=O)N[C@@H](CCCN=C(N)N)C(N)=O` [VDKKHYLPRPRPPRRIYNR], the MIC against Escherichia coli JW0013 was 0.975 µM (≈ 2.4 µg/mL).
Take `CC[C@H](C)[C@H](NC(=O)[C@H](CCCN=C(N)N)NC(=O)[C@H](CCCN=C(N)N)NC(=O)[C@@H]1CCCN1C(=O)[C@@H]1CCCN1C(=O)[C@H](CCCN=C(N)N)NC(=O)[C@H](CCCN=C(N)N)NC(=O)[C@H](CCCN=C(N)N)NC(=O)[C@@H]1CCCN1C(=O)[C@H](CC(C)C)NC(=O)[C@H](Cc1ccc(O)cc1)NC(=O)[C@@H]1CCCN1C(=O)[C@H](CCCCN)NC(=O)[C@H](CCCCN)NC(=O)[C@H](CC(=O)O)NC(=O)[C@@H](N)C(C)C)C(=O)N[C@@H](Cc1ccc(O)cc1)C(=O)N[C@@H](CC(N)=O)C(=O)N[C@@H](CCCN=C(N)N)C(N)=O` [VDKKPYLPRRRPPRRIYNR]: the MIC in the assay with Escherichia coli JW0013 was 0.685 µM (≈ 1.7 µg/mL).
Turning to `CC(C)C[C@H](NC(=O)[C@H](C)NC(=O)CNC(=O)[C@H](CC(C)C)NC(=O)[C@@H](N)Cc1ccccc1)C(=O)N[C@@H](Cc1ccccc1)C(=O)N[C@@H](CCCCN)C(=O)N[C@H](C(=O)N[C@@H](C)C(=O)N[C@@H](CO)C(=O)N[C@@H](Cc1c[nH]c2ccccc12)C(=O)O)C(C)C` [FLGALFKVASW], the MIC in the assay on Klebsiella pneumoniae is greater than 161 µM; against Shigella dysenteriae, no less than 161 µM; against Micrococcus luteus it was no less than 161 µM; with Salmonella typhimurium, no less than 161 µM; with Bacillus subtilis, no less than 161 µM; in the assay on Proteus mirabilis, no less than 161 µM. Moreover, the MIC with Escherichia coli was greater than 161 µM; in assay [5] it was no less than 161 µM; in the assay with Staphylococcus aureus, greater than 161 µM; against Pseudomonas aeruginosa, greater than 161 µM.

As usually defined, the MIC is the lowest concentration found to suppress growth. A higher MIC goes with a need for much substance.
